Assay results published in ChEMBL document CHEMBL2412962, “Human acidic mammalian chitinase as a novel target for anti-asthma drug design using in silico screening” (Bioorg Med Chem, 2013).

Target: Acidic mammalian chitinase (Homo sapiens, UniProt Q9BZP6)
Test: Inhibition of His-tagged recombinant human acidic mammalian chitinase expressed in Escherichia coli Rosetta-gami 2 (DE3) using 4MU-(GlcNAc)2 as substrate assessed as production of 4-methylumbelliferone measured every 5 mins by fluorescence assay

Sequence of Acidic mammalian chitinase (Q9BZP6 whole entry): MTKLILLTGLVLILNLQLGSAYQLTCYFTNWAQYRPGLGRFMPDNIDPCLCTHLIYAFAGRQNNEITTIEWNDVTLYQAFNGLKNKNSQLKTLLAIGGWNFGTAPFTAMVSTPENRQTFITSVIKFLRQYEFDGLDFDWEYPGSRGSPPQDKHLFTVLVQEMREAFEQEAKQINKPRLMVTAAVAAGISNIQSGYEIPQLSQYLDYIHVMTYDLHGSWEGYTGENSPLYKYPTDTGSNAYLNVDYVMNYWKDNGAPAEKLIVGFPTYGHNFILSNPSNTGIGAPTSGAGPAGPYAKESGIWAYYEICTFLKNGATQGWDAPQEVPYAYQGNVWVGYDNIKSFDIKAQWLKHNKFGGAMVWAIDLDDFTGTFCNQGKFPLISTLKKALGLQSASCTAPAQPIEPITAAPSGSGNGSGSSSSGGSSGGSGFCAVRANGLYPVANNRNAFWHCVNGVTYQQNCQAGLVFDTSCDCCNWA

IC50: 30 µM
SMILES: CN=C(S)NNC(=O)c1oc2nc(-c3ccccc3)cc(C)c2c1N
